# Assay results from patent US12286453B2, “Methods of sequencing using nucleotides with 3′ acetal blocking group” (ILLUMINA CAMBRIDGE LIMITED, priority 2020, dated 2025).
# Assay: Solution cleavage efficiency of palladium reagent formulations (HPLC kinetics)
# Type: physicochemical
# Settings: 1 mM Pd species, 0.1 mM substrate, RT; 3 or 3.5 equivalents of THP vs 10 equivalents for [(Allyl)PdCl]2
# Experimental: The cleavage efficiency was determined by measuring the relative rate of cleavage of a 3′-AOM-nucleotide substrate. Briefly, to a 0.1 mM solution of 3′-AOM-nucleotide substrate in 100 mM buffer was added a stock solution of a palladium reagent to a final concentration of 1 mM in Pd species. The solution was incubated at RT and the reaction kinetic was monitored by taking aliquots from the reaction at set time points, quenching them with a 1:1 solution of EDTA/H2O2 (0.1:0.1 M) and analyzing them by HPLC for the formation of 3′-OH nucleotide and the disappearance of the 3′-AOM nucleotide substrate.
compound,measurement,value
[Cl-].[Cl-].[Cl][Pd][Cl].[Na+].[Na+] [Na2PdCl4],cleavage efficiency (relative rate of cleavage),comparable to that of [(Allyl)PdCl]2
